Data from publication PMC4723341, “Ribonuclease H/DNA Polymerase HIV-1 Reverse Transcriptase Dual Inhibitor: Mechanistic Studies on the Allosteric Mode of Action of Isatin-Based Compound RMNC6” (PLoS ONE, 2016).

How the values were obtained:
[1] = target: T1, p66/p51 HIV-1 RT (Human immunodeficiency virus type 1 group M subtype B, UniProt P04585); test: Thermal stability by differential scanning fluorimetry; format: binding; settings: increasing concentrations of inhibitor
T1 construct: The 1:1 ration between the p66/p51 subunits was also verified; made in house; host or cells: E. coli M15
Description: Thermal stability assays were performed according to Nettleship et al.. […] The mixture was heated from 30 to 90°C in increments of 0.2°C. Fluorescence intensity was measured using excitation and emission wavelengths of 483 and 568 nm, respectively. Changes in protein thermal stability (ΔTm) upon inhibitor binding were analyzed by using the LightCycler 480 software. All assays were performed in triplicate.

[2] = target: HIV-1 RT-associated RDDP activity, HIV-1 group O RT (Human immunodeficiency virus type 1 group O, UniProt Q79666); test: RDDP activity assay, HIV-1 group O RT; format: biochemical; settings: read-out: IC50 RDDP
Excerpt: Recombinant HIV-1 group O RT was expressed and purified as previously described. It was obtained as a heterodimer composed of subunits of 66 and 51 kDa, with a polyhistidine tag at the C-terminus of p66. For this purpose, the RT p66 subunit encoded within a p66RTB expression vector was co-expressed with the HIV-1 protease in E. coli XL-1 Blue, and the obtained heterodimers were then purified by ionic exchange followed by chromatography on Ni2+-nitriloacetic acid agarose. The enzyme was quantified by active site titration before biochemical studies.
RNA-dependent DNA polymerase (RDDP) activity was measured as described in 25 μL volume containing 60 mM Tris-HCl buffer pH 8.1, 8 mM MgCl2, 60 mM KCl, 13 mM DTT, 2.5 μM poly(A)-oligo(dT), 100 μM dTTP, increasing concentrations of inhibitors, whose dilution were made in water, and different amounts of enzymes according to a linear range of dose-response curve: 6 ng wt RT; 30 ng K103N RT; 12 ng V106ART; 19 ng V108A RT; 1.51.5 ng Y181C RT; 45 ng Y188A RT; 15 ng Y188L RT; 30 ng E224A RT; 15 ng P225A RT; 18 ng P226A RT; 23 ng F227A RT; 15 ng L228A RT; 30 ng W229A RT; 30 ng M230A RT; 15 ng G231A RT; 15 ng N474A RT; 15 ng Y501A RT; 15 ng A502F RT; 19 ng A508V RT; 38 ng HIV-1 group O RT. After enzyme addition, the reaction mixture was incubated for 30 min at 37°C and the stopped by addition of EDTA. […]

Row | Compound | Tm decrease of HIV-1 RT [1] | IC50 [2] [nM]
1 | Cc1sc2nc(-c3ccc(O)c(O)c3)[nH]c(=O)c2c1C [VU, 2-(3,4-dihydroxyphenyl)-5,6-dimethylthieno[2,3-d]pyrimidin-4(3H)-one] | 0.5−5.5 °C | –
2 | O=C1Nc2ccc(Cl)cc2[C@@](C#CC2CC2)(C(F)(F)F)O1 [EFV, Efavirenz, reference compound] | – | 212 ± 46
